Laboratory results reported in patent publication US20150190369A1, “QUERCETIN-3-GLUCOSIDE AND USES THEREOF” (priority 2012, published 2015).

Experiments:
[1] = test system: hepatocyte nuclear factor 1α (HNF-1α); conditions: cited from earlier work
[2] = test system: PCSK9 gene; conditions: cited from earlier work
[3] = test system: LDLR; assay: Semi-quantitative immunoblotting for LDLR protein in Huh7 cell lysates; format: cell-based, human; conditions: Huh7, at the concentrations of Q3G discussed
Experimental: At passage, Huh7 cells were routinely seeded at sub-confluence (˜10^6 cells/10-cm dish) in Dulbecco's modified Eagle's medium (DMEM) containing 10% fetal bovine serum (FBS) or LPDS (for experiments) and 50 μg/ml gentamycin. They were incubated overnight at 37° C., in a humidified 5% CO2-95% air atmosphere. Cells were treated or not with Q3G at defined concentrations and for defined lengths of time. Media were collected and centrifuged at 200 g for 5 min to sediment suspended cells; supernatants were collected and supplemented with 0.33 volumes of a 3×-concentrated PIC. Cell monolayers were rinsed with ice-cold phosphate-buffered saline (PBS); they were overlaid with […] the RIPA lysis buffer (50 mM Tris-HCl, pH 8, 150 mM NaCl, 1% NP-40, 0.5% Na-deoxycholate and 0.1% SDS) supplemented with 1× PIC. After 20 min in an ice bath, the lysates were centrifuged at 14,000 g and 4° C. for 20 min, and supernatants were collected. Conditioned media and lysates were stored at −20° C. until analysis.
Cell lysates were fractionated by SDS-PAGE and electrophoretically transferred onto a polyvinylidene fluoride membrane. The membrane was incubated with a goat antihuman LDLR, rabbit anti-PCSK9, or rabbit anti-SREBP-2 polyclonal antibody at 1:1000, 1:1500, and 1:200 dilutions, respectively, and then with a HRP-conjugated heterospecific secondary antibody against the primary Igs at a 1:2000 dilution. It was probed for HRP reaction using the Western Lightning Chemiluminescence Reagent Plus a chemiluminescence-based revelation kit. The signal was captured on X-ray film and immunoreactive bands analyzed by densitometry on a Syngene's ChemiGenius^2XE Bio Imaging System (Cambridge, Mass.) within the dynamic range of the instrument. The membrane was stripped and reprobed with the anti-β-actin monoclonal primary antibody at 1:20,000 dilution and HRP-conjugated rabbit anti-mouse IgG secondary antibody at a 1:5000 dilution. The densitometric values of β-actin bands were using for normalization of experimental samples.
Huh7 cells, hepatocyte derived cellular carcinoma cells, were incubated for 24 h in medium containing 10% lipoprotein-depleted serum (LPDS) and 0 to 10 μM Q3G. The level of LDLR mRNA was measured by quantitative real-time RT-PCR; that of the LDLR protein by semi-quantitative immunoblotting. Exposure to Q3G increased the intracellular content of LDLR mRNA in a concentration-dependent manner; the increase reached a 2× maximum at 2 μM (P<0.01, relative to no Q3G) (FIG. 3A). The content of the corresponding protein followed a similar pattern, but reached a 4× maximum at 4 μM (P<0.005) (FIG. 3B).
The kinetics of cellular accumulation of LDLR and PCSK9 at 2 μM Q3G was also examined: PCSK9 accumulation in the cells began after a 3-h lag; that of LDLR after 6-h lag (FIG. 6).
Statins induce expression of LDLR and PCSK9. […] We examined whether, at a 5 μM concentration of Q3G, simvastatin at 0.2 and 1 μM could further up regulate LDLR expression in Huh7 cells; and, inversely, whether the flavonol can reduce statin-stimulated PCSK9 secretion secreted by Huh7 cells.

[4] = test system: Apo B; conditions: Caco-2 cells, 5-30 μM; cited from earlier work
[5] = test system: PCSK9; assay: ELISA for secreted PCSK9 in conditioned media of Huh7 cells; format: cell-based, human; conditions: Huh7, at the concentrations used for Q3G
Experimental: Media were collected and PCSK9 levels therein were determined by ELISA.
At passage, Huh7 cells were routinely seeded at sub-confluence (˜10^6 cells/10-cm dish) in Dulbecco's modified Eagle's medium (DMEM) containing 10% fetal bovine serum (FBS) or LPDS (for experiments) and 50 μg/ml gentamycin. They were incubated overnight at 37° C., in a humidified 5% CO2-95% air atmosphere. Cells were treated or not with Q3G at defined concentrations and for defined lengths of time. Media were collected and centrifuged at 200 g for 5 min to sediment suspended cells; supernatants were collected and supplemented with 0.33 volumes of a 3×-concentrated PIC. Cell monolayers were rinsed with ice-cold phosphate-buffered saline (PBS); they were overlaid with 0.5 of the RIPA lysis buffer (50 mM Tris-HCl, pH 8, 150 mM NaCl, 1% NP-40, 0.5% Na-deoxycholate and 0.1% SDS) supplemented with 1× PIC. After 20 min in an ice bath, the lysates were centrifuged at 14,000 g and 4° C. for 20 min, and supernatants were collected. Conditioned media and lysates were stored at −20° C. until analysis.
The assays for PCSK9 and insulin were conducted as prescribed by kit manufacturers, using a Thermo Scientific plate reader. For example, PCSK9 levels in conditioned media were measured using the human PCSK9 ELISA kit from Circulex, as specified the manufacturer. The assay was a sandwich immunoassay using two antibodies (A and B) recognizing different PCSK9 epitopes. Briefly, aliquot of diluted media were overlaid on wells coated with anti-PCSK9 antibody A. After 1-h incubation, the wells were washed, overlaid with a solution of HRP-conjugated anti-PCSK9 antibody B, and incubated for 1 h. They were washed again, and overlaid with a solution of tetra-methylbenzidine as a chromogenic substrate for HRP. After 15 min, the reaction was stopped with ammonium sulfate and the absorbance of the reaction mixtures measured by spectrophotometry at 450 nm. All the steps were performed at room temperature. Standards consisted of recombinant human PCSK9.

[6] = test system: LDLR; conditions: HepG2 hepatocytes, 75 μM; cited from earlier work

SMILES | expression of HNF-1α [1] | PCSK9 gene transcription [2] | increase in LDLR level [3] | Apo B secretion [4] | effect on PCSK9 secretion [5] | effect on PCSK9 secretion ([5]; listed as aglycone form of quercetin) | LDLR expression [6]
COc1ccc2cc3[n+](cc2c1OC)CCc1cc2c(cc1-3)OCO2 [Berberine] | decreased expression | reduces |  |  |  |  | 
O=c1c(O)c(-c2ccc(O)c(O)c2)oc2cc(O)cc(O)c12 [quercetin aglycone, quercetin] |  |  | not observed | inhibit | not observed | failed to affect PCSK9 secretion | up-regulation
